Results reported in publication PMC9867208, “Lipophilicity and ADMET Analysis of Quinoline-1,4-quinone Hybrids” (Pharmaceutics, 2022).
Like-named read-outs stand apart in the source and are kept apart here.

Key:
[1] = Experimental lipophilicity by RP-TLC; details: for φ0 (hydrophobicity index): φ0 = −RM0/b
Text: The RP-TLC method was used to determine the experimental lipophilicity according to the literature. Modified silica gel was used as the stationary phase and a mixture of tris(hydroxymethyl)aminomethane (TRIS) (0.2 M, pH = 7.4) with acetone as the mobile phase. […] For this reason, an aprotic solvent such as acetone was chosen as the mobile phase.
Spots were visualized in iodine vapor.
The retardation parameter (Rf) was converted to the RM parameter according to Equation (1):(1) RM=log(1/Rf−1)
The RM parameter was calculated for every concentration of acetone and extrapolated to zero concentration of organic solvent in the mobile phase. The chromatographic parameter of lipophilicity (RM0) was calculated using Equation (2):(2) RM=RM0+bC where C is the concentration of acetone in the mobile phase, while b is the slope of the regression plot.
In the next step, the relative lipophilicity parameter RM0 was converted to the absolute lipophilicity parameter logPTLC using the calibration curve.
Lipophilicity correlates with hydrophobicity, which determines the solubility of the compound in water. The hydrophobicity is described by the hydrophobicity index (φ0), which can be calculated according to Equation (4). (4) φ0=−RM0/b

[2] = tested on: NAD(P)H quinone dehydrogenase 1 (NQO1); details: cited from earlier work
[3] = RP-TLC, acetone/TRIS 0.2 M pH 7.4, extrapolated to zero acetone
[4] = from RM0 by calibration curve Equation (3)

Compound	RM0 (chromatographic parameter of lipophilicity) [1, 3]	logPTLC (experimental lipophilicity) [1, 4]	logNQO1 (enzymatic conversion rate of NQO1) [2]	logPTLC (experimental lipophilicity) [1]	RM0 (chromatographic parameter of lipophilicity) ([1]; pH 7.4)	φ0 (hydrophobicity index) [1]	chromatographic logP [1]
CC(=O)Nc1ccccc1 [B, acetanilide, reference compound]	1.11	1.19	–	–	–	–	–
Cc1ccc2cccc(OC3=C(Cl)C(=O)c4ccncc4C3=O)c2n1 [Compound 8]	–	–	3.058	2.85	2.56 ± 0.02	74.47	–
Cc1ccc2c(n1)C(=O)C(Oc1cccc3ccc(N4CCCC4)nc13)=C(Cl)C2=O [Compound 17]	3.39 ± 0.03	–	2.778	–	–	75.30	3.79
O=C1C(Cl)=C(Oc2cccc3ccc(Cl)nc23)C(=O)c2cnccc21 [Compound 10]	3.25 ± 0.01	–	2.801	–	–	78.21	3.63
O=Cc1ccc2cccc(OC3=C(Cl)C(=O)c4ccccc4C3=O)c2n1 [Compound 21]	4.11 ± 0.01	–	2.740	–	–	80.01	4.61
Cc1ccc2cccc(OC3=C(Cl)C(=O)c4ccccc4C3=O)c2n1 [Compound 20]	3.34 ± 0.01	3.73	3.100	–	–	79.55	–
O=C1C(Cl)=C(Oc2cccc3ccc(N4CCOCC4)nc23)C(=O)c2ncccc21 [Compound 6]	2.45 ± 0.04	–	2.053	–	–	66.81	2.72
O=C1C(Cl)=C(Oc2cccc3cccnc23)C(=O)c2ccccc21 [Compound 19]	2.90 ± 0.02	3.23	3.108	–	–	78.79	–
Cc1ccc2c(n1)C(=O)C(Oc1cccc3ccc(C=O)nc13)=C(Cl)C2=O [Compound 15]	2.05 ± 0.01	–	2.672	–	–	71.78	2.26
O=Cc1ccc2cccc(OC3=C(Cl)C(=O)c4cccnc4C3=O)c2n1 [Compound 3]	1.60 ± 0.03	–	3.041	–	–	68.09	1.75
O=C1C(Cl)=C(Oc2cccc3ccc(N4CCOCC4)nc23)C(=O)c2cnccc21 [Compound 12]	3.30 ± 0.02	–	2.155	–	–	72.22	3.68
NC(=O)c1ccccc1 [A, benzamide, reference compound]	0.54	–	–	–	–	–	0.54
O=C1C(Cl)=C(Oc2cccc3ccc(N4CCCC4)nc23)C(=O)c2ccccc21 [Compound 23]	3.72 ± 0.02	–	2.549	–	–	81.13	4.16
O=Cc1ccc2cccc(OC3=C(Cl)C(=O)c4ccncc4C3=O)c2n1 [Compound 9]	2.45 ± 0.02	–	2.502	–	–	73.71	2.72
O=C1C(Cl)=C(Oc2cccc3ccc(N4CCCC4)nc23)C(=O)c2ncccc21 [Compound 5]	2.35 ± 0.02	–	3.034	–	–	74.53	2.6
Cc1ccc2c(n1)C(=O)C(Oc1cccc3cccnc13)=C(Cl)C2=O [Compound 13]	–	–	3.178	2.31	2.09 ± 0.02	66.07	–
Cc1ccc2cccc(OC3=C(Cl)C(=O)c4cccnc4C3=O)c2n1 [Compound 2]	–	–	3.112	1.84	1.68 ± 0.03	68.99	–
O=C1C(Cl)=C(Oc2cccc3cccnc23)C(=O)c2ncccc21 [Compound 1]	–	–	3.146	1.65	1.51 ± 0.02	72.87	–
CC(=O)c1ccc(Br)cc1 [C, 4-bromoacetophenone, reference compound]	2.33	2.58	–	–	–	–	–
Cc1ccc2c(n1)C(=O)C(Oc1cccc3ccc(Cl)nc13)=C(Cl)C2=O [Compound 16]	2.96 ± 0.01	–	2.949	–	–	69.66	3.3
O=C1C(Cl)=C(Oc2cccc3ccc(Cl)nc23)C(=O)c2ncccc21 [Compound 4]	2.55 ± 0.02	–	2.903	–	–	65.88	2.55
Clc1ccc(C(c2ccc(Cl)cc2)C(Cl)(Cl)Cl)cc1 [F, dichlorodiphenyltrichloroethane, reference compound]	5.60	6.31	–	–	–	–	–
O=C1C(Cl)=C(Oc2cccc3cccnc23)C(=O)c2cnccc21 [Compound 7]	–	–	3.083	2.40	2.17 ± 0.01	72.57	–
Cc1ccc2c(n1)C(=O)C(Oc1cccc3ccc(C)nc13)=C(Cl)C2=O [Compound 14]	–	–	3.157	2.00	1.82 ± 0.02	69.97	–
O=C1C(Cl)=C(Oc2cccc3ccc(N4CCCC4)nc23)C(=O)c2cnccc21 [Compound 11]	2.83 ± 0.03	–	2.330	–	–	74.76	3.15
O=C1C(Cl)=C(Oc2cccc3ccc(N4CCOCC4)nc23)C(=O)c2ccccc21 [Compound 24]	4.01 ± 0.01	–	1.940	–	–	75.95	4.5
Cc1ccc2c(n1)C(=O)C(Oc1cccc3ccc(N4CCOCC4)nc13)=C(Cl)C2=O [Compound 18]	2.69 ± 0.03	–	2.322	–	–	68.95	2.98
O=C1C(Cl)=C(Oc2cccc3ccc(Cl)nc23)C(=O)c2ccccc21 [Compound 22]	4.51 ± 0.02	–	3.000	–	–	76.85	5.06
c1ccc2cc3ccccc3cc2c1 [E, anthracene, reference compound]	3.97	–	–	–	–	–	4.45
